Test results published in ChEMBL document CHEMBL1201862, “PubChem BioAssay data set” (2004).
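Interpolation was linear, between the two tested concentrations surrounding the appropriate level; five concentrations were tested over 48 hours in 96-well plates. GI50 = concentration required for 50% inhibition of growth.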 Activity calls are given as the source filed them. Rule as the data show it: active = GI50 up to about 1.1 µM and inactive = higher.

What was measured:
Assay in all cases: DTP human tumour cell line panel, 48 h
[1] = system: CAKI-1
[2] = system: SF-268
[3] = system: SNB-19
[4] = system: HOP-92
[5] = system: SK-MEL-28
[6] = system: MOLT-4
[7] = system: A498
[8] = system: RXF 393
[9] = system: UACC-257
[10] = system: LOX IMVI
[11] = system: SN12C
[12] = system: K562
[13] = system: UO-31
[14] = system: U-251
[15] = system: NCI-H23
[16] = system: HCT-15
[17] = system: BT-549
[18] = system: NCI/ADR-RES
[19] = system: Malme-3M
[20] = system: SR

| SMILES | GI50 [1] | GI50 [2] | GI50 [3] | GI50 [4] | GI50 [5] | GI50 [6] | GI50 [7] | GI50 [8] | GI50 [9] | GI50 [10] | GI50 [11] | GI50 [12] | GI50 [13] | GI50 [14] | GI50 [15] | GI50 [16] | GI50 [17] | GI50 [18] | GI50 [19] | GI50 [20] |
| --- | --- | --- | --- | --- | --- | --- | --- | --- | --- | --- | --- | --- | --- | --- | --- | --- | --- | --- | --- | --- |
| C1CSCCSCCSCCSCCS1 | > 100 µM (inactive) | > 100 µM (inactive) | > 100 µM (inactive) | > 100 µM (inactive) | > 100 µM (inactive) | > 100 µM (inactive) | > 100 µM (inactive) | > 100 µM (inactive) | > 100 µM (inactive) | > 100 µM (inactive) | > 100 µM (inactive) | > 100 µM (inactive) | > 100 µM (inactive) | > 100 µM (inactive) | > 100 µM (inactive) | > 100 µM | > 100 µM (inactive) | > 100 µM (inactive) |  |  |
| O=C1Nc2ccccc2/C1=N/Nc1ncccc1[N+](=O)[O-] |  | 11.9 µM (inactive) | 19.9 µM (inactive) | 62.2 µM (inactive) | 22.6 µM (inactive) | 48.1 µM (inactive) | 71.3 µM (inactive) |  | 23 µM (inactive) | 7.55 µM (inactive) | 17.3 µM (inactive) | 3.95 µM (inactive) | 11.6 µM (inactive) | 7.18 µM (inactive) |  | 4.72 µM | 11.5 µM (inactive) | 9.25 µM (inactive) | 17.3 µM (inactive) |  |
| CCOC(=O)c1cccn1S(=O)(=O)c1cc(Cl)ccc1NC(=O)CC | > 100 µM (inactive) |  | > 100 µM (inactive) | > 100 µM (inactive) | > 100 µM (inactive) | 47.8 µM (inactive) | > 100 µM (inactive) | 91 µM (inactive) | > 100 µM (inactive) | 70.5 µM (inactive) | > 100 µM (inactive) | 51.8 µM (inactive) | 15.4 µM (inactive) | > 100 µM (inactive) |  | 44 µM | 52.6 µM (inactive) |  |  | > 10 µM (inactive) |
| CC1=CC(=O)/C(=C/NC(=S)c2ccccc2)C(=O)O1 | > 100 µM (inactive) |  | > 100 µM (inactive) | > 100 µM (inactive) | > 100 µM (inactive) | > 100 µM (inactive) |  |  | > 100 µM (inactive) | > 100 µM (inactive) | > 100 µM (inactive) |  | > 100 µM (inactive) | > 100 µM (inactive) | > 100 µM (inactive) | > 100 µM | > 100 µM (inactive) | > 100 µM (inactive) |  |  |
| C[C@]12CC[C@@H]3c4ccc(O)cc4CC[C@H]3[C@@H]1C/C(=C\c1ccncc1)[C@@H]2O | 12.8 µM (inactive) | 8.55 µM (inactive) | 23.4 µM (inactive) | 5.32 µM (inactive) | 22.3 µM (inactive) | 3.6 µM (inactive) | 5.78 µM (inactive) | 2.5 µM (inactive) | 14.5 µM (inactive) |  | 26.9 µM (inactive) |  | 21.5 µM (inactive) | 11.8 µM (inactive) | 3.1 µM (inactive) | 4.22 µM | 3.86 µM (inactive) | 5.56 µM (inactive) | 5.04 µM (inactive) |  |
| CC(C)(C)OC(=O)N1C(=O)OC[C@@H]2C=C[C@@H]21 | > 100 µM (inactive) | > 100 µM (inactive) | > 100 µM (inactive) | > 100 µM (inactive) | > 100 µM (inactive) | > 100 µM (inactive) | > 100 µM (inactive) | > 100 µM (inactive) | > 100 µM (inactive) | > 100 µM (inactive) | > 100 µM (inactive) |  |  | > 100 µM (inactive) | > 100 µM (inactive) | > 100 µM | > 100 µM (inactive) | > 100 µM (inactive) | > 100 µM (inactive) |  |
| N#CC1=C(Nc2ccccc2)SC=C(c2ccccc2)N=C1NCc1ccccc1 | > 100 µM (inactive) | > 100 µM (inactive) | > 100 µM (inactive) |  | > 100 µM (inactive) | 72.6 µM (inactive) | > 100 µM (inactive) | > 100 µM (inactive) |  |  | > 100 µM (inactive) | 24.9 µM (inactive) | 71 µM (inactive) | > 100 µM (inactive) | > 100 µM (inactive) | > 100 µM |  | > 100 µM (inactive) | > 100 µM (inactive) | 0.984 µM (active) |
| CSCCC(NC(=O)Cc1ccc(C(=O)c2ccccc2)cc1)C(=O)N1CCN(CCCCN2c3ccccc3Sc3cc(N=[N+]=[N-])ccc32)CC1 (stereo not given) | > 100 µM (inactive) | > 100 µM (inactive) |  | > 100 µM (inactive) |  | > 100 µM (inactive) | 72.3 µM (inactive) | 89.9 µM (inactive) | > 100 µM (inactive) | > 100 µM (inactive) | > 100 µM (inactive) | > 100 µM (inactive) | 34.8 µM (inactive) | > 100 µM (inactive) | 27.9 µM (inactive) | > 100 µM | > 100 µM (inactive) |  | > 100 µM (inactive) |  |
